Results as given in US11136551B2, “In vitro method of differentiating a human pluripotent stem cell population into a cardiomyocyte cell population” (Ncardia B.V., priority 2015, dated 2021).

What was measured:
[1] = system: hIPSC lines; test: Percentage of cardiomyocytes by flow cytometry for Troponin-T (TNNT-2) at day 14; type: cell-based, human; conditions: for differentiation efficiency (TNNT-2 positive cells): FIG. 5, day 14
Protocol: For differentiation, cells were seeded in 12-well plates at density of 60,000 cells per well or a split ratio that was empirically determined to give 30-80% confluence after 4 days. Culture media was […] days with a differentiation media as disclosed herein, for example containing 46.5% IMDM (Gibco 21056), 0.25% Bovostar BSA, 46.5% Ham's F12 with Glutamax, 2 mM Glutamax, 450 nM […], 0.05 mg/ml ascorbic acid, 0.5% 5000 U/ml Pen/Strep (Gibco 12070), 0.01% 1000* Trace elements mix B (Cellgro 99-176-CL), 0.1% 1000* Trace elements mix C (Cellgro 99-176-CL). In several experiments 0.1% ITS-x was used from day 4-14, i.e. during differentiation of the cells. Cell numbers were determined with a Fuchs-Rosenthal counting chamber. Briefly, cells grown in monolayer cultures were detach from surface of plate using TrypLETM Select Enzyme (Life Technologies). A uniform cell suspension was transferred to the edge of hemocytometer counting chamber. Cells were counted and number of cells was determined using following equations: cells/ml=average count per square×dilution factor×5000 total cells=cells/ml×total original volume of cell suspension from which sample was taken. Method of Measuring NKX2.5 NKX-GFP reporter hESC and iPSC cells have been described previously. These cells express the fluorescent protein GFP under the control of the endogenous NKX2-5 promoter. GFP+ve cells mark cardiomyocytes (Elliott D A et al. Nat. Methods, 8 (2011), pp. 1037-1040; van den Berg C W et al., Development. 2015 Jul. 24. pii: dev.123810. [Epub ahead of print]). NKX 2.5 is transcription factor essential for heart development and it is expressed in the heart throughout life. GFP fluorescence reports the expression of the endogenous NKX2.5 gene and enables identification/quantification of hPSC-derived cardiomyocytes during differentiation. Method of Measuring TNNT2 (Using FACS) The percentage TNNT2 expressing cells was measured by flow cytometric analysis. Briefly, cells were dissociated with TrypLETM Select Enzyme (Life Technologies), washed with PBS, fixed and permeabilized with FIX & PERM® Cell Fixation and Permeabilization Kit (Life Technologies). Samples were incubated with Troponin T (TNNT2), Cardiac Isoform Ab-1, Mouse Monoclonal Antibody (ThermoFisher, MS-295-P1; at 1:1000 dilution) followed by incubation with secondary antibody Donkey Anti-mouse APC (Jackson Immuno, 715-136-151; at 1:500 dilution) both diluted in Fix&Perm Medium B. Samples were analyzed on a NovocyteTM Flow Cytometer (ACEA Bioscicences) or a MACSQuant VYB instrument (Miltenyi Biotech). […] Two […] cultured on feeders in KOSR (InvitroGen)/FGF supplemented DMEM-F12. To start differentiation, cells were dissociated using Accutase and resuspended in mTesR at a concentration of 60,000/ml cells, the cell suspension was seeded onto Matrigel coated 12-well plates. Cells were maintained for 4 days before onset of differentiation. Cells were treated for 2 days with 5 microMolar CHIR99021, followed by 2 days culture in the presence of specific Wnt inhibiting small molecules, next the cells were cultured for 10 days in differentiation medium. Percentage of cardiomyocytes (FIG. 4A; % TNNT2 positive cells at day 14) was determined at day 14 of differentiation using flow cytometry for the pan-cardiac marker Troponin-T (TNNT-2). […] Presence and absence or concentration have no significant effect on the total number of cells (FIG. 4B; cell count at day 14, in million cells/well). […]

[2] = system: dishevelled 2 (Dvl2); conditions: HEK293 cells; cited from earlier work
[3] = system: NKX2-5-GFP reporter stem cells; test: Percentage of cardiomyocytes by flow cytometry of GFP positive cells at day 14; type: cell-based, human; conditions: FIG. 3, reduction of IWP-L6 from 2 microMolar to 0.25 microMolar
Protocol: For differentiation, cells were seeded in 12-well plates at density of 60,000 cells per well or a split ratio that was empirically determined to give 30-80% confluence after 4 days. Culture media was […] days with a differentiation media as disclosed herein, for example containing 46.5% IMDM (Gibco 21056), 0.25% Bovostar BSA, 46.5% Ham's F12 with Glutamax, 2 mM Glutamax, 450 nM […], 0.05 mg/ml ascorbic acid, 0.5% 5000 U/ml Pen/Strep (Gibco 12070), 0.01% 1000* Trace elements mix B (Cellgro 99-176-CL), 0.1% 1000* Trace elements mix C (Cellgro 99-176-CL). In several experiments 0.1% ITS-x was used from day 4-14, i.e. during differentiation of the cells. Cell numbers were determined with a Fuchs-Rosenthal counting chamber. […] Cells were counted and number of cells was determined using following equations: cells/ml=average count per square×dilution factor×5000 total cells=cells/ml×total original volume of cell suspension from which sample was taken. […] GFP fluorescence reports the expression of the endogenous NKX2.5 gene and enables identification/quantification of hPSC-derived cardiomyocytes during differentiation. Method of Measuring TNNT2 (Using FACS) The percentage TNNT2 expressing cells was measured by flow cytometric analysis. […] Percentage of cardiomyocytes was determined at day 14 of differentiation using flow cytometry for detection/quantification of GFP positive cells. […]

[4] = system: human pluripotent stem cells; test: In vitro differentiation of human pluripotent stem cells into cardiomyocytes: yield and progress of differentiation; type: cell-based; conditions: in combination with XAV-939, relative to IWP-L6
Protocol: IGF may be added during any stage of the method of differentiating the human pluripotent stem cell population. IGF may, for example, be provided to the human pluripotent stem cell population immediately after plating or passaging the cells (i.e. after transferring of a small number of cells into a new vessel for cultivating) and before, for example, step a) is performed (the contacting of the cells with at least the Wnt-signaling agonist), or before step b) is performed (the contacting of the cells with XAV-939 and IWP-L6 and/or C-59). […]
For differentiation, cells were seeded in 12-well plates at density of 60,000 cells per well or a split ratio that was empirically determined to give 30-80% confluence after 4 days. […]
Cell numbers were determined with a Fuchs-Rosenthal counting chamber. […] Cells were counted and number of cells was determined using following equations: cells/ml=average count per square×dilution factor×5000 total cells=cells/ml×total original volume of cell suspension from which sample was taken. […] GFP fluorescence reports the expression of the endogenous NKX2.5 gene and enables identification/quantification of hPSC-derived cardiomyocytes during differentiation. Method of Measuring TNNT2 (Using FACS) The percentage TNNT2 expressing cells was measured by flow cytometric analysis. […]

O=c1[nH]c(-c2ccc(C(F)(F)F)cc2)nc2c1CSCC2 [XAV-939, 3,5,7,8-Tetrahydro-2-[4-(trifluoromethyl)phenyl]-4H-thiopyrano[4,3-d]pyrimidin-4-one]
differentiation efficiency (% TNNT2 positive cells at day 14) ([1]; FIG. 4A, further increase of concentration above 5 microMolar): reduces differentiation efficiency | optimal concentration (% TNNT2 positive cells at day 14) ([1]; FIG. 4A, titration of XAV-939, two hIPSC lines): 5 microMolar | differentiation efficiency (TNNT-2 positive cells) ([1]; addition of XAV939 to IWP-L6): further increased

O=C(CSc1nc2c(c(=O)n1-c1ccccc1)SCC2)Nc1ccc(-c2ccccc2)cn1 [IWP-L6, 2-[(4-oxo-3-phenyl-6,7-dihydrothieno[3,2-d]pyrimidin-2-yl)sulfanyl]-N-(5-phenylpyridin-2-yl)acetamide]
phosphorylation of dishevelled 2 (Dvl2) [2]: suppress phosphorylation of dishevelled 2 (Dvl2) | differentiation (% TNNT2 positive cells at day 14) ([1]; FIG. 4A, addition of IWP-L6 at 0.25 microMolar to XAV939): further improves the differentiation | differentiation efficiency (TNNT-2 positive cells) ([1]; alone): about 70% | differentiation efficiency (GFP positive cells) [3]: increases the differentiation efficiency even further

Cc1cc(-c2ccc(CC(=O)Nc3ccc(-c4cccnc4)cc3)cc2)ccn1 [C59, 2-[4-(2-methylpyridin-4-yl)phenyl]-N-(4-pyridin-3-ylphenyl)acetamide]
toxicity to the human pluripotent stem cells [4]: more toxic | yield of cell obtained with the method ([4]; data not shown): reduced yield
